{"source": "patent US20240228487A1", "about": "“FUSED HETEROCYCLIC COMPOUND AND APPLICATION THEREOF, PHARMACEUTICAL COMPOSITIONS CONTAINING SAME AND APPLICATION THEREOF” (ZHEJIANG UNIVERSITY, priority 2021, published 2024)", "tested_on": "WT (TRPM2+/+) and TRPM2 knockout (TRPM2-/-) mice, tMCAO", "experiment": "tMCAO in WT and TRPM2 knockout mice given autophagy inhibitor", "format": "in vivo, mouse", "conditions": "FIG. 12", "text": "After isoflurane inhalation gas anesthesia of 22-25 g male WT mice (TRPM2+/+) and TRPM2 knockout (TRPM2−/−) mice, the fiber-optic probes of laser Doppler flowmeter were fixed to the skull of the animals with glue and used to monitor the cerebral blood flow of the middle cerebral artery (MCA) supplying cortex.\nThe mice were fixed in the supine position, and the middle of the neck was dehaired and routinely sterilized with 75% alcohol. […] Only animals whose blood flow values decreased to 20% of the basic value were selected according to the blood flow data monitored by the flowmeter. […]\nThe mice were decapitated 24 h after ischemia-reperfusion, the coronal planes of the brains were cut into brain slices of about 2 mm thickness uniformly. […] The processed brain slices were photographed using a macro camera, and Image J image analysis software was used to calculate and count the cerebral infarct volume, and the measured results are shown in FIG. 11. […]"}
{"smiles": "Cn1cnc(N)c2ncnc1-2", "note": "[Compound 3-MA]", "values": [{"measurement": "cerebroprotective effect of reduced TRPM2 levels during cerebral ischemia reperfusion", "result": "reversed"}]}
